Common to all, as to assay type: in vivo
Test [1] has as its system Septoria tritici. The test is described as follows: Test A1 (comparative): wheat leaf blotch, wheat seedlings. To be noted: 100 = 100% disease control, 0 = no control. The source says: (§1) General protocol for preparing test suspensions for Tests A1-F1: the test compounds were first dissolved in acetone in an amount equal to 3% of the final volume and then suspended at the desired concentration (in ppm) in acetone and purified water (50/50 mix by volume) containing 250 ppm of the surfactant PEG400 (polyhydric alcohol esters). The resulting test suspensions were then used in Tests A1-F1.
The test solution was sprayed to the point of run-off on wheat seedlings. The following day the seedlings were inoculated with a spore suspension of Septoria tritici (the causal agent of wheat leaf blotch) and incubated in a saturated atmosphere at 24° C. for 48 h, and then moved to a growth chamber at 20° C. for 17 days, after which time disease ratings were made.
(§2) A rating of 100 indicates 100% disease control and a rating of 0 indicates no disease control (relative to the controls).

The subject of test [2] is Puccinia recondita f. sp. tritici. The test is described as follows: Test B1 (comparative): wheat leaf rust, wheat seedlings. To be noted: 100 = 100% disease control.
From the text: as §1
The test solution was sprayed to the point of run-off on wheat seedlings. The following day the seedlings were inoculated with a spore suspension of Puccinia recondita f. sp. tritici (the causal agent of wheat leaf rust) and incubated in a saturated atmosphere at 20° C. for 24 h, and then moved to a growth chamber at 20° C. for 7 days, after which time disease ratings were made.
as §2

In test [3] the test system is Blumeria graminis f. sp. tritici. Put plainly: Test C1 (comparative): wheat powdery mildew, wheat seedlings. To be noted: 100 = 100% disease control.
From the text: as §1
The test suspension was sprayed to the point of run-off on wheat seedlings. The following day the seedlings were inoculated with a spore dust of Blumeria graminis f. sp. tritici, (also known as Erysiphe graminis f. sp. tritici, the causal agent of wheat powdery mildew) and incubated in a growth chamber at 20° C. for 8 days, after which time visual disease ratings were made.
as §2

Test [4] concerns Botrytis cinerea. Put plainly: Test E1 (comparative): tomato Botrytis, tomato seedlings. To be noted: 100 = 100% disease control.
From the text: as §1
The test suspension was sprayed to the point of run-off on tomato seedlings. The following day the seedlings were inoculated with a spore suspension of Botrytis cinerea (the causal agent of tomato Botrytis) and incubated in a saturated atmosphere at 20° C. for 48 h, and then moved to a growth chamber at 24° C. for 3 days, after which time visual disease ratings were made.
as §2

In test [5] the test system is Alternaria solani. The test is described as follows: Test F1 (comparative): tomato early blight, tomato seedlings. To be noted: 100 = 100% disease control.
From the text: as §1
The test suspension was sprayed to the point of run-off on tomato seedlings. The following day the seedlings were inoculated with a spore suspension of Alternaria solani (the causal agent of tomato early blight) and incubated in a saturated atmosphere at 27° C. for 48 h, and then moved to a growth chamber at 20° C. for 3 days, after which time visual disease ratings were made.
as §2

In test [6] the test system is Septoria tritici. Put plainly: Test A: wheat leaf blotch, preventive spray on wheat seedlings. To be noted: 100 = 100% disease control, 0 = no control. In short, it runs like this: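 Wheat seedlings sprayed to run-off with compound suspended in acetone/water with 250 ppm PEG400 surfactant, inoculated next day with Septoria tritici spores. Held 48 h saturated at 24 °C, then 17 days at 20 °C; disease rated 0–100% control relative to controls.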

Test [7] has as its system Puccinia recondita f. sp. tritici. Put plainly: Test B: wheat leaf rust, preventive spray on wheat seedlings. To be noted: 100 = 100% disease control, 0 = no control. The method, boiled down: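 Wheat seedlings were sprayed to run-off with compound suspended at ppm concentrations in acetone/water containing 250 ppm PEG400. The next day they were inoculated with Puccinia recondita f. sp. tritici spores, held saturated at 20 °C for 24 h, then kept 7 days at 20 °C. Disease control was rated 0–100% relative to untreated controls.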

A further test deals with Phakopsora pachyrhizi. Put plainly: Test D: Asian soybean rust, preventive spray on soybean seedlings. To be noted: 100 = 100% disease control, 0 = no control. The method, boiled down:
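Compounds in acetone/water (50/50) with 250 ppm PEG400, dosed in ppm, sprayed to run-off on soybean seedlings; inoculated with P. pachyrhizi spores next day. Held 24 h at 22 °C in saturated air, then 8 days at 22 °C; visual rating of disease control, 0–100, relative to untreated controls.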

For test [8], the system named is Botrytis cinerea. The test is described as follows: Test E: tomato Botrytis, preventive spray on tomato seedlings. To be noted: 100 = 100% disease control, 0 = no control. The method, boiled down:
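Compound suspended in 50/50 acetone/water with 250 ppm PEG400 surfactant and sprayed to run-off on tomato seedlings; Botrytis cinerea spores applied the next day. Incubation 48 h at 20° C in saturated atmosphere, then 3 days at 24° C. Visual rating 0–100% disease control relative to controls.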

Test [9] has as its system Alternaria solani. Put plainly: Test F: tomato early blight, preventive spray on tomato seedlings. To be noted: 100 = 100% disease control, 0 = no control. The method, boiled down:
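Tomato seedlings were sprayed to run-off with compound suspended in acetone/water (50/50) with 250 ppm PEG400 and inoculated with Alternaria solani spores the next day. Plants were held 48 h at 27 °C in saturated humidity, then 3 days at 20 °C. Disease control was rated visually from 0 to 100 against untreated controls.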

Test [10] relates to Blumeria graminis f. sp. tritici. Put plainly: Test C: wheat powdery mildew, preventive spray on wheat seedlings. To be noted: 50 ppm, 100 = 100% disease control, 0 = no control. The method, boiled down: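 Seedlings were sprayed to run-off with compound suspended (ppm) in 50/50 acetone–water containing 250 ppm PEG400, then spore-dust inoculated the following day. After 8 days at 20° C, disease control was rated visually from 0 to 100 against controls.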

Consider `Cc1nn(C)c(Nc2ccc([N+](=O)[O-])cc2F)c1-c1ccc(F)cc1Cl` [Cmpd. from WO 2010/101973, reference compound], for which the “Test A1 disease control rating” value is on record as 45% with Septoria tritici [1] (Rate 10 ppm) and 91% in the test with Septoria tritici [1] (Rate 50 ppm). For the same compound, the “Test B1 disease control rating” value in test [2] (Rate 10 ppm) and in [2] (Rate 50 ppm) was 0% each time. The “Test C1 disease control rating” value in [3] (Rate 10 ppm) and in test [3] (Rate 50 ppm) was 0% in each case. The “Test E1 disease control rating” value in the test with Botrytis cinerea [4] (Rate 10 ppm) is reported as 0%; in the test on Botrytis cinerea [4] (Rate 50 ppm), 40%. The “Test F1 disease control rating” value with Alternaria solani [5] (Rate 10 ppm) and in the test on Alternaria solani [5] (Rate 50 ppm) was 0% in each case.
For the compound `Cc1nn(C)c(Nc2c(F)cccc2[N+](=O)[O-])c1-c1ccc(F)cc1Cl` [Compound 112, 4-(2-chloro-4-fluorophenyl)-N-(2-fluoro-6-nitrophenyl)-1,3-dimethyl-1H-pyrazol-5-amine], the pest or weed control at 10 ppm in the test with Septoria tritici [6] (Zymoseptoria tritici, 456 h, 10 ppm, read-out: Test A disease control rating) is 72%; in test [7] (192 h, 10 ppm, read-out: Test B disease control rating), 100%; in the test with Phakopsora pachyrhizi (216 h, 10 ppm, read-out: Test D disease control rating) it was 52%; in the test on Botrytis cinerea [8] (120 h, 10 ppm, read-out: Test E disease control rating), 100%; in the test on Alternaria solani [9] (120 h, 10 ppm, read-out: Test F disease control rating), 98%. Moreover, the pest or weed control at 50 ppm in the test with Septoria tritici [6] (Zymoseptoria tritici, 456 h, 50 ppm, read-out: Test A disease control rating) amounted to 88%; in test [7] (192 h, 50 ppm, read-out: Test B disease control rating), 100%; with Phakopsora pachyrhizi (216 h, 50 ppm, read-out: Test D disease control rating), 99%; in the test on Botrytis cinerea [8] (120 h, 50 ppm, read-out: Test E disease control rating), 100%; in the test on Alternaria solani [9] (120 h, 50 ppm, read-out: Test F disease control rating) it was 100%. In addition, the results for the “Test A1 disease control rating” value in the test with Septoria tritici [1] (Rate 10 ppm) and in the test on Septoria tritici [1] (Rate 50 ppm) were 81% and 100%, respectively. Besides, the “Test B1 disease control rating” value in [2] (Rate 10 ppm) came out at 86%; in [2] (Rate 50 ppm), 100%. The “Test C1 disease control rating” value in test [3] (Rate 10 ppm) came to 97%; in test [3] (Rate 50 ppm), 98%. Moreover, the “Test E1 disease control rating” value in the test on Botrytis cinerea [4] (Rate 10 ppm) and with Botrytis cinerea [4] (Rate 50 ppm) was 99% each time. Moreover, the “Test F1 disease control rating” value in the test on Alternaria solani [5] (Rate 10 ppm) amounted to 99%.
Turning to `Cc1ccc(Nc2c(-c3c(F)cccc3Cl)c(C)nn2C)c([N+](=O)[O-])c1` [compound 195], the “Test A disease control rating” value in the test with Septoria tritici [6] (50 ppm) amounted to 100%. In test [7] (50 ppm), the “Test B disease control rating” value was found to be 98%. Besides, the “Test C disease control rating” value in test [10] turned out to be 97%. Also, the “Test D disease control rating” value in the test on Phakopsora pachyrhizi (50 ppm) was 0%. Further, the “Test E disease control rating” value with Botrytis cinerea [8] (50 ppm) is listed as 98%. In addition, the “Test F disease control rating” value in the test with Alternaria solani [9] (50 ppm) was 73%.
With `Cc1ccc(Nc2c(-c3c(F)cc(F)cc3Br)c(C)nn2C)c([N+](=O)[O-])c1` [compound 196], the “Test A disease control rating” value in the test with Septoria tritici [6] (50 ppm) was 100%. The “Test B disease control rating” value in test [7] (50 ppm) amounted to 99%. Further, in test [10], the “Test C disease control rating” value was found to be 98%. For the same compound, the “Test D disease control rating” value with Phakopsora pachyrhizi (50 ppm) is on record as 0%. Besides, the “Test E disease control rating” value in the test on Botrytis cinerea [8] (50 ppm) was found to be 98%. Also, the “Test F disease control rating” value in the test on Alternaria solani [9] (50 ppm) came out at 91%.
Consider `COc1ccc(Nc2c(-c3c(F)cccc3Cl)c(C)nn2C)c([N+](=O)[O-])c1` [compound 197], for which the “Test A disease control rating” value in the test with Septoria tritici [6] (50 ppm) is 100%. For the same compound, the “Test B disease control rating” value in test [7] (50 ppm) amounted to 99%. Also, the “Test C disease control rating” value in test [10] is given as 93%. Besides, in the test with Phakopsora pachyrhizi (50 ppm), the “Test D disease control rating” value was 0%. Also, the “Test E disease control rating” value with Botrytis cinerea [8] (50 ppm) is on record as 98%. In addition, the “Test F disease control rating” value in the test on Alternaria solani [9] (50 ppm) is on record as 98%.
With `Cc1cc(F)c(Nc2c(-c3ccc(C#N)cc3F)c(C)nn2C)c([N+](=O)[O-])c1` [compound 198], the “Test A disease control rating” value in the test with Septoria tritici [6] (50 ppm) was 99%. In addition, the “Test B disease control rating” value in test [7] (50 ppm) was determined as 99%. Besides, the “Test C disease control rating” value in test [10] was 95%. Also, the “Test D disease control rating” value in the test on Phakopsora pachyrhizi (50 ppm) worked out at 89%. For the same compound, the “Test E disease control rating” value in the test on Botrytis cinerea [8] (50 ppm) is given as 99%. Also, the “Test F disease control rating” value in the test on Alternaria solani [9] (50 ppm) worked out at 100%.
For `Cc1nn(C)c(Nc2c(F)cc(F)cc2[N+](=O)[O-])c1-c1c(F)cc(F)cc1Cl` [compound 199], the “Test A disease control rating” value in the test on Septoria tritici [6] (50 ppm) was determined as 99%. Moreover, in test [7] (50 ppm), the “Test B disease control rating” value was determined as 100%. The “Test C disease control rating” value in test [10] was 100%. Moreover, the “Test D disease control rating” value in the test with Phakopsora pachyrhizi (50 ppm) is reported as 100%. Besides, in the test on Botrytis cinerea [8] (50 ppm), the “Test E disease control rating” value is listed as 99%. Moreover, the “Test F disease control rating” value in the test on Alternaria solani [9] (50 ppm) came out at 100%.
With `Cc1cc(F)c(Nc2c(-c3c(F)cc(C#N)cc3F)c(C)nn2C)c([N+](=O)[O-])c1` [compound 200], in the test with Septoria tritici [6] (50 ppm), the “Test A disease control rating” value worked out at 99%. Further, the “Test B disease control rating” value in test [7] (50 ppm) worked out at 100%. Moreover, the “Test C disease control rating” value in test [10] is on record as 99%. In addition, the “Test D disease control rating” value with Phakopsora pachyrhizi (50 ppm) is listed as 100%. Also, the “Test E disease control rating” value in the test with Botrytis cinerea [8] (50 ppm) stood at 98%. In the test with Alternaria solani [9] (50 ppm), the “Test F disease control rating” value worked out at 100%.
Regarding `Cc1cc(F)c(Nc2c(-c3c(F)cccc3Cl)c(C)nn2C)c([N+](=O)[O-])c1` [compound 201], in the test with Septoria tritici [6] (50 ppm), the “Test A disease control rating” value is reported as 100%. In addition, the “Test B disease control rating” value in test [7] (50 ppm) is recorded as 100%. Also, in test [10], the “Test C disease control rating” value stood at 99%. Besides, the “Test D disease control rating” value in the test with Phakopsora pachyrhizi (50 ppm) is 98%. In addition, the “Test E disease control rating” value in the test with Botrytis cinerea [8] (50 ppm) came out at 99%. Besides, the “Test F disease control rating” value in the test on Alternaria solani [9] (50 ppm) was found to be 99%.

Source of the values: patent US20230148599A1, “FUNGICIDAL MIXTURES CONTAINING PYRAZOLE DERIVATIVES” (FMC Corporation, priority 2020, published 2023).
